Reference: ChEMBL document CHEMBL1201862, “PubChem BioAssay data set” (2004)
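Where inhibition never reached the appropriate level, the endpoint shown equals the highest concentration tested. Otherwise, values were interpolated linearly from a five-concentration, 48-hour dose response in 96-well plates. At the GI50, growth is halved.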 Activity calls are given as the source filed them. Rule as the data show it: active = GI50 up to about 1.1 µM and inactive = higher.

How the values were obtained:
Assay in all cases: NCI anticancer screen, dose series, 48 h
MCF7 = system: MCF7
NCI-H226 = system: NCI-H226
RPMI-8226 = system: RPMI-8226
COLO 205 = system: COLO 205
OVCAR-4 = system: OVCAR-4
HL-60 = system: HL-60
KM12 = system: KM12
SF-539 = system: SF-539
M14 = system: M14
TK-10 = system: TK-10
T47D = system: T47D
PC-3 = system: PC-3
SF-268 = system: SF-268
LOX IMVI = system: LOX IMVI
CAKI-1 = system: CAKI-1
BT-549 = system: BT-549
MDA-MB-231 = system: MDA-MB-231
RXF 393 = system: RXF 393
SF-295 = system: SF-295
SK-OV-3 = system: SK-OV-3

| Compound | GI50 (MCF7) | GI50 (NCI-H226) | GI50 (RPMI-8226) | GI50 (COLO 205) | GI50 (OVCAR-4) | GI50 (HL-60) | GI50 (KM12) | GI50 (SF-539) | GI50 (M14) | GI50 (TK-10) | GI50 (T47D) | GI50 (PC-3) | GI50 (SF-268) | GI50 (LOX IMVI) | GI50 (CAKI-1) | GI50 (BT-549) | GI50 (MDA-MB-231) | GI50 (RXF 393) | GI50 (SF-295) | GI50 (SK-OV-3) |
| --- | --- | --- | --- | --- | --- | --- | --- | --- | --- | --- | --- | --- | --- | --- | --- | --- | --- | --- | --- | --- |
| O=C1OS2(OC(=O)c3cccc4cccc2c34)c2ccccc21 (configuration not stated) | > 100 µM (inactive) | > 100 µM (inactive) | > 100 µM (inactive) | > 100 µM (inactive) | > 100 µM (inactive) | > 100 µM (inactive) | > 100 µM (inactive) | > 100 µM (inactive) | > 100 µM (inactive) | > 100 µM (inactive) | > 100 µM (inactive) | > 100 µM (inactive) | > 100 µM (inactive) | > 100 µM (inactive) | > 100 µM (inactive) | > 100 µM (inactive) | > 100 µM (inactive) | > 100 µM (inactive) | > 100 µM (inactive) | – |
| Nc1nc(N)c2nc(CN(C=O)c3ccc(C(=O)O)cc3)cnc2n1 | 5.31 µM (inactive) | > 100 µM (inactive) | 14.7 µM (inactive) | > 100 µM (inactive) | > 100 µM (inactive) | 18.8 µM (inactive) | 6.64 µM (inactive) | 8.26 µM (inactive) | 7.43 µM (inactive) | > 29.2 µM (inactive) | > 100 µM (inactive) | 0.668 µM (active) | 9.68 µM (inactive) | 4.27 µM (inactive) | > 28.2 µM (inactive) | > 26.6 µM (inactive) | > 100 µM (inactive) | > 100 µM (inactive) | 17.1 µM (inactive) | > 30.1 µM (inactive) |
| CCOP(=O)(CC1CC(O)(CNc2cc(Cl)nc(N)n2)C1)OCC (configuration not stated) | > 100 µM (inactive) | > 100 µM (inactive) | > 100 µM (inactive) | > 100 µM (inactive) | > 100 µM (inactive) | > 100 µM (inactive) | > 100 µM (inactive) | > 100 µM (inactive) | – | > 100 µM (inactive) | 98.9 µM (inactive) | > 100 µM (inactive) | > 100 µM (inactive) | > 100 µM (inactive) | > 100 µM (inactive) | > 100 µM (inactive) | > 100 µM (inactive) | > 100 µM (inactive) | > 100 µM (inactive) | > 100 µM (inactive) |
| c1cc2c3ccsc3c3sccc3c2s1 | 26.9 µM (inactive) | 10 µM (inactive) | > 100 µM (inactive) | > 100 µM (inactive) | > 100 µM (inactive) | 46.9 µM (inactive) | > 100 µM (inactive) | 90.8 µM (inactive) | > 100 µM (inactive) | > 100 µM (inactive) | > 100 µM (inactive) | > 100 µM (inactive) | > 100 µM (inactive) | > 100 µM (inactive) | > 100 µM (inactive) | > 100 µM (inactive) | > 100 µM (inactive) | > 100 µM (inactive) | > 100 µM (inactive) | > 100 µM (inactive) |
| O=C1C(NS(=O)(=O)c2ccccc2)=C(N(Cc2ccccc2)Cc2ccccc2)C(=O)c2ccccc21 | 49.7 µM (inactive) | 64.7 µM (inactive) | 18.8 µM (inactive) | 39.6 µM (inactive) | 19.5 µM (inactive) | 20.7 µM (inactive) | > 100 µM (inactive) | 67.5 µM (inactive) | 43.7 µM (inactive) | 66.8 µM (inactive) | 32.1 µM (inactive) | 32.4 µM (inactive) | 88.1 µM (inactive) | 65.3 µM (inactive) | > 100 µM (inactive) | 16.9 µM (inactive) | > 100 µM (inactive) | 15.5 µM (inactive) | 31.9 µM (inactive) | 39.9 µM (inactive) |
| Cc1cccc(C)c1NC(=S)NC=C(C(N)=O)C(N)=O | > 100 µM (inactive) | > 100 µM (inactive) | > 100 µM (inactive) | > 100 µM (inactive) | > 100 µM (inactive) | – | > 100 µM (inactive) | > 100 µM (inactive) | > 100 µM (inactive) | > 100 µM (inactive) | > 100 µM (inactive) | > 100 µM (inactive) | > 100 µM (inactive) | > 100 µM (inactive) | > 100 µM (inactive) | > 100 µM (inactive) | > 100 µM (inactive) | > 100 µM (inactive) | > 100 µM (inactive) | > 100 µM (inactive) |
| CC1(C)[C@@H]2C[C@H]1[C@@H](Cc1cccc(C[C@H]3c4cc(-c5ccccn5)ncc4[C@H]4C[C@@H]3C4(C)C)c1)c1cc(-c3ccccn3)ncc12 | 4.92 µM (inactive) | 2.83 µM (inactive) | 1.47 µM (inactive) | 2.93 µM (inactive) | > 100 µM (inactive) | 1.29 µM (inactive) | 3.12 µM (inactive) | 4 µM (inactive) | 2.76 µM (inactive) | > 39.5 µM (inactive) | 2.44 µM (inactive) | 12.6 µM (inactive) | 1.97 µM (inactive) | 1.75 µM (inactive) | 1.75 µM (inactive) | > 100 µM (inactive) | > 31.8 µM (inactive) | 4.39 µM (inactive) | 0.69 µM (active) | > 100 µM (inactive) |
